Laboratory results from patent publication US8846937B2, “Mono quaternary ammonium salts and methods for modulating neuronal nicotinic acetylcholine receptors” (University of Kentucky Research Foundation, priority 2006, dated 2014).

Key:
[1] = biological target: T1, Rat Striatal Nicotinic Receptors ([^3H]NIC binding) (Rattus norvegicus, UniProt P09483+P12390); experiment: Inhibition of [^3H]nicotine binding to brain membranes; conditions: 3 nM [^3H]NIC; for Ki: full concentration effect; for inhibition at 0.1 µM: % inhibition at 100 nM analog, nonspecific 10 μM nicotine
T1 construct: Whole brain, excluding cortex and cerebellum, was homogenized; from tissue; host or cells: rat brain membranes (whole brain excluding cortex and cerebellum)
T1 sequence (P09483 31-630): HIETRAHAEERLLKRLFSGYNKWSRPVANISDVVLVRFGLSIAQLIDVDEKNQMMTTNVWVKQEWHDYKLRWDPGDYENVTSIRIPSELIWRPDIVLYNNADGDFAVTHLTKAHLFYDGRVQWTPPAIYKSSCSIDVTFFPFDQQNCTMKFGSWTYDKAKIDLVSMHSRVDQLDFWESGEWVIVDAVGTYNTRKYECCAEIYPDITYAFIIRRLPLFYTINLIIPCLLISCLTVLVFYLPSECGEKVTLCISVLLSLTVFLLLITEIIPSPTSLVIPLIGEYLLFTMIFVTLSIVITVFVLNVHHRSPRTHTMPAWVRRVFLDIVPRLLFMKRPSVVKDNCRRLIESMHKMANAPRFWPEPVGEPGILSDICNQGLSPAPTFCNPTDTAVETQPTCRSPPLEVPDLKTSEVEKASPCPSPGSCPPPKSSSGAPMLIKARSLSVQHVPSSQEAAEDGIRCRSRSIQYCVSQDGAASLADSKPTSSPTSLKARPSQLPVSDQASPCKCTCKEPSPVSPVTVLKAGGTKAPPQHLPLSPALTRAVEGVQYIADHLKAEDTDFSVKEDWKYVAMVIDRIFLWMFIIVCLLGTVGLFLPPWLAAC
T1 sequence (P12390 25-500): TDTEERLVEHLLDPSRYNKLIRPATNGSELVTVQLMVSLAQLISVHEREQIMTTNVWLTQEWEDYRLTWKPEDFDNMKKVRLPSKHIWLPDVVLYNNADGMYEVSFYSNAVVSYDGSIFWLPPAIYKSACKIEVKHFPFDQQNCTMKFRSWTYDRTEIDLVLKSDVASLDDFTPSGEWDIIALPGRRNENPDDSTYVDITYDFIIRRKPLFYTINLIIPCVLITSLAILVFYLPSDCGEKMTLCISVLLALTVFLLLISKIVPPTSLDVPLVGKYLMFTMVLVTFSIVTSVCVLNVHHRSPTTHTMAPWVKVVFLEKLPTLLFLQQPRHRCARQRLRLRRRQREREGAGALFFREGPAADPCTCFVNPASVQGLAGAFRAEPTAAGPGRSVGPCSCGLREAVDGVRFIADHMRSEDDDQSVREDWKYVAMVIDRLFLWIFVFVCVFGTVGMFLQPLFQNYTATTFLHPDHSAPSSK
Procedure: (§1) Test compounds of Formula (I), representing the mono quaternary nicotine analogs of the present invention, were evaluated to determine the effect of a test compound on nicotine-binding and methyllycaconitine-binding mediated by nicotine acetylcholine receptors.
(§2) Homogenate was centrifuged (25,000 g, 15 min, 4° C.). Pellets were resuspended in 20 volumes of buffer and incubated at 37° C., for 10 min, cooled to 4° C. and centrifuged (25,000 g, 15 min, 4° C.). Pellets were resuspended and centrifuged using the same conditions. […] Upon use, final pellets were resuspended in ˜20 volumes of assay buffer. Samples (250 μl) contained 100-140 μg of membrane protein, 3 nM [^3H]nicotine or 3 nM [^3H]methyllycaconitine (MLA), and test compounds of Formula (I) (100 nM) in assay buffer containing 50 mM Tris. A control sample absent test compounds of Formula (I) was also prepared. In the [^3H]nicotine-binding assay and [^3H]MLA-binding assay, nonspecific-binding was determined in the presence of 10 μM nicotine and 10 μM MLA, respectively. Incubations proceeded for 60 min at a room temperature using 96-well plates, and were terminated by harvesting on Unifilter-96 GF/B filter plates presoaked in 0.5% polyethylenimine, using a Packard FilterMate harvester. After washing 5 times with 350 μl ice-cold assay buffer, the filter plates were dried (60 min, 4° C.), bottom-sealed, and filled with Packard's MicroScint 20 cocktail (40 μl/well). After 60 min, filter plates were top-sealed, and levels of radioactivity were determined using a Packard TopCount. Protein concentrations were determined using the Bradford dye-binding procedure using bovine serum albumin as a standard protein.
Specific binding in the [^3H]NIC binding assay is calculated as the difference between the total binding of 3 nM [^3H]NIC and nonspecific binding in the presence of 10 μM cold nicotine. […] Analog-induced inhibition of nicotine-evoked [^3H]DA release is calculated as a percent of that in the absence of the mono quaternary ammonium analog. ND indicates not determined.

[2] = biological target: T2, Rat Striatal Nicotinic Receptors ([^3H]MLA binding) (Rattus norvegicus, UniProt Q05941); experiment: Inhibition of [^3H]methyllycaconitine (MLA) binding to brain membranes; conditions: for Ki: full concentration effect, 2.5 nM [^3H]MLA (footnote); for inhibition at 0.1 µM: % inhibition at 100 nM analog, 2.5 nM [^3H]MLA, nonspecific 1 μM MLA (footnote)
T2 construct: Whole brain, excluding cortex and cerebellum, was homogenized; from tissue; host or cells: rat brain membranes (whole brain excluding cortex and cerebellum)
T2 sequence (Q05941 23-502): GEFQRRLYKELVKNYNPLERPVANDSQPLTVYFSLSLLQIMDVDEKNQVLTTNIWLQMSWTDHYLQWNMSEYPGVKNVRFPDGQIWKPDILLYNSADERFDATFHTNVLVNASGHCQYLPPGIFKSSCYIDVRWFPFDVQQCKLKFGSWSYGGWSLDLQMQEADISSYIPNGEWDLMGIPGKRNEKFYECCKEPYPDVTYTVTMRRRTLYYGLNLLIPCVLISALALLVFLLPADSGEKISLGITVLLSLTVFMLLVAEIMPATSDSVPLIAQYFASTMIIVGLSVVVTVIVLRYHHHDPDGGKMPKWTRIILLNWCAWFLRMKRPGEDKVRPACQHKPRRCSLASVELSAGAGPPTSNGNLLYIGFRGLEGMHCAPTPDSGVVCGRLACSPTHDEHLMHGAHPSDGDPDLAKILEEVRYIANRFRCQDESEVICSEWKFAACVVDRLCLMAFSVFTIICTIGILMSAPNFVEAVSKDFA
Procedure: as §1
as §2, with “Samples (250 μl) contained 100-140 μg of membrane protein, 3 nM [^3H]nicotine or 3 nM [^3H]methyllycaconitine (MLA), and test compounds of Formula (I) (100 nM) in assay buffer containing 50 mM Tris.” left out, “In the [^3H]nicotine-binding assay and [^3H]MLA-binding assay, nonspecific-binding was determined in the presence of 10 μM nicotine and 10 μM MLA, respectively.” left out, “protein. […]” for “protein.”

[3] = test system: nicotinic receptors, NIC-evoked [^3H]DA release from rat striatal slices; experiment: Inhibition of nicotine-evoked [^3H]dopamine release from superfused rat striatal slices; type: cell-based; conditions: 1 h, 100 nM analog superfused 60 minutes prior to NIC (10 μM)
Procedure: Rat striatal slices (500 μm thickness, 6-8 mg wet weight) were incubated for 30 minutes in Krebs buffer (118 mM NaCl, 4.7 mM KCl, 1.2 mM MgCl2, 1.0 mM NaH2PO4, 1.3 mM CaCl2, 11.1 mM glucose, 25 mM NaHCO3, 0.11 mM L-ascorbic acid, and 0.004 mM disodium EDTA at pH 7.4, and saturated with 95% O2/5% CO2) in a metabolic shaker at 34° C. Slices were rinsed with 15 mL of fresh buffer, and were incubated for an additional 30 minutes in fresh buffer containing 0.1 μM [^3H]dopamine (DA; 6 slices/3 mL). Subsequently, slices were rinsed with 15 mL of fresh buffer and transferred to a glass superfusion chamber. Slices were superfused (1.0 mL/min) for 60 minutes with Krebs buffer containing nomifensine (10 μM) and pargyline (10 μM), and maintained at 34° C., pH 7.4, with continual aeration (95% O2/5% CO2). Two five minute samples (5 mL each) were collected to determine basal outflow of [^3H]DA. The test compounds of Formula (I) were added to the superfusion buffer after the collection of the second sample, and were maintained in the buffer until 12 consecutive five minute samples were collected. Subsequently, S-(−)-nicotine (10 μM) was added to the buffer, and an additional 12 consecutive five minute samples were collected. At the end of the experiment, each slice was solubilized, and the [^3H]content of the tissue determined.
Radioactivity in the superfusate and tissue samples was determined by liquid scintillation spectroscopy. Fractional release of tritium collected in each sample was divided by the total tritium present in the tissue at the time of sample collection, and the fractional release of tritium collected was expressed as a percentage of total tritium. Basal [^3H]outflow was calculated from the average of the tritium collected in the two five minute samples just before addition of a test compound of Formula (I). The sum of the increase in collected tritium resulting from either exposure to a test compound of Formula (I), or exposure to S(−) nicotine in the absence and presence of a test compound of Formula (I) equaled total [^3H]overflow. [^3H]Overflow was calculated by subtracting the [^3H]outflow during an equivalent period of pre-stimulation from the values in samples collected during and after drug exposure. Inasmuch as the radio-labeled compounds were not separated and identified, the tritium collected in superfusate is referred to as either [^3H]outflow or [^3H]overflow, rather than as [^3H]DA. [^3H]Overflow primarily represents [^3H]DA in the presence of nomifensine and pargyline in the superfusion buffer.
The quaternary analogs of Formula (I) were also evaluated for their ability to inhibit NIC-evoked [^3H]DA release. In these experiments, the striatal slices were superfused for 60 minutes with 100 nM concentration of the quaternary analogs prior to NIC (10 μM) exposure. Antagonist activity was evaluated by comparing the NIC-evoked [^3H]overflow in the absence and presence of the analogs. The relative order of potency of the quaternary analogs of Formula (I) for inhibition of NIC-evoked [^3H]DA release from rat striatal slices is illustrated in Table 1.
^aData are % inhibition at 100 nM concentration of the mono quaternary analogs for at least 1-3 independent experiments; with the exception of when a Ki value in μM is provided, in which case a full concentration effect was evaluated. Specific binding in the [^3H]NIC binding assay is calculated as the difference between the total binding of 3 nM [^3H]NIC and nonspecific binding in the presence of 10 μM cold nicotine. Specific binding for the [^3H]MLA binding assay is calculated as the difference between the total binding of 2.5 nM [^3H]MLA to the receptors alone and its nonspecific binding in the presence of 1 μM cold MLA. Analog-induced inhibition of nicotine-evoked [^3H]DA release is calculated as a percent of that in the absence of the mono quaternary ammonium analog. ND indicates not determined.

SMILES | Ki [1] | Ki [2] | inhibition at 0.1 µM [3] | inhibition at 0.1 µM [1] | inhibition at 0.1 µM [2]
Cc1ccc[n+](CCCCCCCCc2ccccc2)c1 | > 100 µM | > 100 µM | 0% | – | –
Cc1cc[n+](CCCCCCCCc2ccccc2)cc1 | > 100 µM | 27 µM | 12% | – | –
CCCCc1ccc(C#CCC[n+]2ccc3c(c2)CCCC3)cc1 | > 100 µM | 3.7 µM | 70% | – | –
c1cncc(CCCCCCCCCCCCC[n+]2ccc3c(c2)CCCC3)c1 | > 100 µM | 7.2 µM | 0% | – | –
CCCCc1ccc[n+](CCCC#Cc2ccc(-c3ccccc3)cc2)c1 | – | – | 50% | 0% | 9%
C(#Cc1ccc(-c2ccccc2)cc1)CCC[n+]1ccccc1 | – | – | 34% | 2% | 6%
